BindingDB's records for doi:10.1124/jpet.105.083964 (Taisho Pharmaceutical, 2005)

Columns and labels:
B2 bradykinin receptor = B2 bradykinin receptor (Homo sapiens, UniProt P30411)
[1] = biological target: Prostaglandin G/H synthase 2 (Ovis aries, UniProt P79208)
[2] = biological target: 5-hydroxytryptamine receptor 1B (Rattus norvegicus, UniProt P28564)
Adenosine receptor A1 = Adenosine receptor A1 (Rattus norvegicus, UniProt P25099)
[3] = biological target: Interleukin-1 receptor (Mus musculus)
[4] = biological target: Type-2 angiotensin II receptor (Bos taurus, UniProt G5E6F7)
[5] = biological target: Beta-1 adrenergic receptor (Rattus norvegicus, UniProt P18090)
[6] = biological target: Muscarinic acetylcholine receptor M2 (Rattus norvegicus, UniProt P10980)
[7] = biological target: Type-1 angiotensin II receptor A (Rattus norvegicus, UniProt P25095)
[8] = biological target: Gamma-aminobutyric acid receptor subunit alpha-1 (Rattus norvegicus, UniProt P62813)
[9] = biological target: PDGF receptor (Mus musculus)
[10] = biological target: L-type calcium channel (Rattus norvegicus)
[11] = biological target: Endothelin-1 receptor (Rattus norvegicus) (UniProt P26684)
[12] = biological target: Platelet-activating factor receptor (Oryctolagus cuniculus)
[13] = biological target: Corticotropin-releasing factor receptor 1 (Rattus norvegicus, UniProt P35353)
[14] = biological target: Nitric oxide synthase, endothelial (Homo sapiens, UniProt P29474)
Mu-type opioid receptor = Mu-type opioid receptor (Rattus norvegicus, UniProt P33535)
Phosphodiesterase 3a = Phosphodiesterase 3a (Cavia porcellus, UniProt C7DXW3)
Substance-P receptor = Substance-P receptor (Homo sapiens, UniProt P25103)
[15] = biological target: Neuronal acetylcholine receptor subunit alpha-9 (Rattus norvegicus, UniProt P43144)
[16] = biological target: 5-hydroxytryptamine receptor 2A (Rattus norvegicus, UniProt P14842)
[17] = biological target: cAMP-specific 3',5'-cyclic phosphodiesterase 4D (Homo sapiens, UniProt Q08499)
[18] = biological target: Insulin receptor (Rattus norvegicus) (UniProt P15127)
[19] = biological target: Angiotensin-converting enzyme (Homo sapiens, UniProt P12821)
[20] = biological target: Sigma non-opioid intracellular receptor 1 (Rattus norvegicus, UniProt Q9R0C9)
[21] = biological target: Prostaglandin G/H synthase 1 (Rattus norvegicus, UniProt Q63921)
[22] = biological target: Cholecystokinin receptor type A (Homo sapiens) (UniProt P32238)
[23] = biological target: Gamma-aminobutyric acid (GABA) B receptor 1 (Rattus norvegicus, UniProt Q6MFX8)
[24] = biological target: Dual specificity calcium/calmodulin-dependent 3',5'-cyclic nucleotide phosphodiesterase 1A (Bos taurus, UniProt P14100)
[25] = biological target: Glutamate receptor ionotropic, NMDA 1 (Rattus norvegicus, UniProt P35439)
D(1A) dopamine receptor = D(1A) dopamine receptor (Rattus norvegicus, UniProt P18901)
[26] = biological target: Tumor necrosis factor receptor (Homo sapiens)
Histamine H1 receptor = Histamine H1 receptor (Cavia porcellus, UniProt P31389)
Adenosine receptor A2a = Adenosine receptor A2a (Rattus norvegicus, UniProt P30543)
[27] = biological target: Vasoactive intestinal polypeptide receptor 1 (Homo sapiens, UniProt P32241)
[28] = biological target: Phosphodiesterase 5A (Homo sapiens)
D(2) dopamine receptor = D(2) dopamine receptor (Rattus norvegicus, UniProt P61169)
Caspase-3 = Caspase-3 (Homo sapiens, UniProt P42574)
Glucocorticoid receptor = Glucocorticoid receptor (Mus musculus, UniProt P06537)

Measured: Ki

Sequence of 5-hydroxytryptamine receptor 1B (P28564 whole entry): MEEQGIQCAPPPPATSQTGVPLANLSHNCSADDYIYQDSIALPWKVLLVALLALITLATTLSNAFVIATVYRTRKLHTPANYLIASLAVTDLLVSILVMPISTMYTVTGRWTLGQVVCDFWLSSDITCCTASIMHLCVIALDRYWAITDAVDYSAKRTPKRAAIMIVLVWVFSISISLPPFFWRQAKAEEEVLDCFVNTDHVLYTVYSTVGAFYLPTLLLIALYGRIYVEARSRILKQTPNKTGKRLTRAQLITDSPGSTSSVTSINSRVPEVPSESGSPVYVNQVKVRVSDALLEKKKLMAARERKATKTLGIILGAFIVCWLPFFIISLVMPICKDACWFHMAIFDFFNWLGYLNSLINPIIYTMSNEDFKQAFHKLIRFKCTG
Sequence of Adenosine receptor A2a (P30543 whole entry): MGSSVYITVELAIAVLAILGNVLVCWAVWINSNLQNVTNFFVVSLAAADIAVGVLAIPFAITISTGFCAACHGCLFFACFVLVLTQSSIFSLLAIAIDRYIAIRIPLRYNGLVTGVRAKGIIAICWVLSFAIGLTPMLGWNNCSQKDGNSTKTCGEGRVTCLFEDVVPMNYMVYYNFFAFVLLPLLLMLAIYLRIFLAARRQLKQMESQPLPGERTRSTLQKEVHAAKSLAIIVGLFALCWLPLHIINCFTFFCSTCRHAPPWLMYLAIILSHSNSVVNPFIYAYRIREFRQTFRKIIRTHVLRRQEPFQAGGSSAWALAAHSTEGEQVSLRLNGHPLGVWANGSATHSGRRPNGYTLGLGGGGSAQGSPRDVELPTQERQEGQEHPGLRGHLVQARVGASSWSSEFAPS
Sequence of Muscarinic acetylcholine receptor M2 (P10980 whole entry): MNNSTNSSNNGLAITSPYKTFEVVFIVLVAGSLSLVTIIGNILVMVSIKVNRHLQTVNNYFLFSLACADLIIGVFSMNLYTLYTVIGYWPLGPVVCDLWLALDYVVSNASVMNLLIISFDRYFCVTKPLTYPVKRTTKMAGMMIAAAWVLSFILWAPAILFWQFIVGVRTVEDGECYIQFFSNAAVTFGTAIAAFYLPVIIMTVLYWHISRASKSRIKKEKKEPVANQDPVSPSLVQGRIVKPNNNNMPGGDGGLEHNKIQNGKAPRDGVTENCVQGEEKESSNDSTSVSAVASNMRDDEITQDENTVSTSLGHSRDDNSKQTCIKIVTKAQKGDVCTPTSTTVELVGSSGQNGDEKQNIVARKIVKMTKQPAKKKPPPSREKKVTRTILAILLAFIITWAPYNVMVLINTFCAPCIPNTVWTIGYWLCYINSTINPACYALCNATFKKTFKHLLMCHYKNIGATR
Sequence of Caspase-3 (P42574 29-175 limits assumed): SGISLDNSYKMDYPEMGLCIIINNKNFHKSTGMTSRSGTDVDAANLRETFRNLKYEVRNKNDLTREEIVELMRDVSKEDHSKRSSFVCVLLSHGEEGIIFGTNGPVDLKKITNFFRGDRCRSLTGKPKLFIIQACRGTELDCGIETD
Sequence of Caspase-3 (P42574 176-277 limits assumed): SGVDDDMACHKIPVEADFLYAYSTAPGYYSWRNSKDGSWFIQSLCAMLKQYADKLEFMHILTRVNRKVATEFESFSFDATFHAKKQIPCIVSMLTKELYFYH
Sequence of Cholecystokinin receptor type A (Homo sapiens) (P32238 whole entry, looked up): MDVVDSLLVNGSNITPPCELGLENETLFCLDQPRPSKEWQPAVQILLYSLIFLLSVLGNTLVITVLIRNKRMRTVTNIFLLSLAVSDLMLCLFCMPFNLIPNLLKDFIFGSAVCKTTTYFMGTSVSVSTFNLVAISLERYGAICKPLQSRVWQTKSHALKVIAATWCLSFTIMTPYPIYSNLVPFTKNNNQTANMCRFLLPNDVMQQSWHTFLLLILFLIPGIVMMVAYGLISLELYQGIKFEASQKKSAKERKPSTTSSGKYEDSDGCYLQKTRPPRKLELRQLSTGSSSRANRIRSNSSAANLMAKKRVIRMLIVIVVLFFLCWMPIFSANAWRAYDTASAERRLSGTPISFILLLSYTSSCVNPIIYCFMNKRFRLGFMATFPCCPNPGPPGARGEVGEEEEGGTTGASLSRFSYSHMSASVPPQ
Sequence of Mu-type opioid receptor (P33535 whole entry): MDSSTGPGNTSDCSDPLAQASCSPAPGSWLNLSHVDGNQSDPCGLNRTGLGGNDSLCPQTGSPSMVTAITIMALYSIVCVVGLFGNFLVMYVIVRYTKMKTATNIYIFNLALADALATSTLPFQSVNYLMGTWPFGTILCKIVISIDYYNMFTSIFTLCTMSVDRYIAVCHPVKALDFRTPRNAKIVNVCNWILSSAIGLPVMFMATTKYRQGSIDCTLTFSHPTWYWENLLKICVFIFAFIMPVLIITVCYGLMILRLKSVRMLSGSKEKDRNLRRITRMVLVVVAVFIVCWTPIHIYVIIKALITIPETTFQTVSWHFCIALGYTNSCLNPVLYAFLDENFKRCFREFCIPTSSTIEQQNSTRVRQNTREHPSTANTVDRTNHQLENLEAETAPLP
Sequence of 5-hydroxytryptamine receptor 2A (P14842 whole entry): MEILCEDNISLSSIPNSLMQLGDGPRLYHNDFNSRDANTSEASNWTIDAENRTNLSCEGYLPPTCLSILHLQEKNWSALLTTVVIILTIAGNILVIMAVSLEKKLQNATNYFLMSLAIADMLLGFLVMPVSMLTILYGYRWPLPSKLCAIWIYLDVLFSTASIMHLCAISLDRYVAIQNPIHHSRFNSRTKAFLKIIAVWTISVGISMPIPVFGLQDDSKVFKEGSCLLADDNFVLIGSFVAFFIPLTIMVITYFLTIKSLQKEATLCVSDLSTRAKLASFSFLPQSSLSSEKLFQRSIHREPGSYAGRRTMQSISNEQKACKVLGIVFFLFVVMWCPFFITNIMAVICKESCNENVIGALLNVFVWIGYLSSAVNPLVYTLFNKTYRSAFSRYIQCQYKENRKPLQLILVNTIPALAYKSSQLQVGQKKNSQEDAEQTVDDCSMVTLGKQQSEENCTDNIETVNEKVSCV
Sequence of D(1A) dopamine receptor (P18901 whole entry): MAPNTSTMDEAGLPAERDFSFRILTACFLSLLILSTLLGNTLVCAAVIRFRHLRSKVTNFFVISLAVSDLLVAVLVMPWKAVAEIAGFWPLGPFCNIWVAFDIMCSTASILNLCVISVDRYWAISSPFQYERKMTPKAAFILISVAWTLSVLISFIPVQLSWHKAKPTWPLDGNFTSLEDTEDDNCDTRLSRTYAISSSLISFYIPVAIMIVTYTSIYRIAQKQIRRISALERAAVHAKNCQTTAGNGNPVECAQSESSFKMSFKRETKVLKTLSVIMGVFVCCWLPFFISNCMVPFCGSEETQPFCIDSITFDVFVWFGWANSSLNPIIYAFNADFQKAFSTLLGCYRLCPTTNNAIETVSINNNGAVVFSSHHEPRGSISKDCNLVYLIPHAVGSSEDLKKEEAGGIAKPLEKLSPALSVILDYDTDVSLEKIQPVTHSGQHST
Sequence of Sigma non-opioid intracellular receptor 1 (Q9R0C9 whole entry): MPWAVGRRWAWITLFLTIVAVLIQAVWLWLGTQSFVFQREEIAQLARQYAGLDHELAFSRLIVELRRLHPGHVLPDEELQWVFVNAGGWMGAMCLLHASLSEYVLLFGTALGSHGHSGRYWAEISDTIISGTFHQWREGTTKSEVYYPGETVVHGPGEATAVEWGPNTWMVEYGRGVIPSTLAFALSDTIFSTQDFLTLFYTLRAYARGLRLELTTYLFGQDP
Sequence of Glucocorticoid receptor (P06537 as listed by the source): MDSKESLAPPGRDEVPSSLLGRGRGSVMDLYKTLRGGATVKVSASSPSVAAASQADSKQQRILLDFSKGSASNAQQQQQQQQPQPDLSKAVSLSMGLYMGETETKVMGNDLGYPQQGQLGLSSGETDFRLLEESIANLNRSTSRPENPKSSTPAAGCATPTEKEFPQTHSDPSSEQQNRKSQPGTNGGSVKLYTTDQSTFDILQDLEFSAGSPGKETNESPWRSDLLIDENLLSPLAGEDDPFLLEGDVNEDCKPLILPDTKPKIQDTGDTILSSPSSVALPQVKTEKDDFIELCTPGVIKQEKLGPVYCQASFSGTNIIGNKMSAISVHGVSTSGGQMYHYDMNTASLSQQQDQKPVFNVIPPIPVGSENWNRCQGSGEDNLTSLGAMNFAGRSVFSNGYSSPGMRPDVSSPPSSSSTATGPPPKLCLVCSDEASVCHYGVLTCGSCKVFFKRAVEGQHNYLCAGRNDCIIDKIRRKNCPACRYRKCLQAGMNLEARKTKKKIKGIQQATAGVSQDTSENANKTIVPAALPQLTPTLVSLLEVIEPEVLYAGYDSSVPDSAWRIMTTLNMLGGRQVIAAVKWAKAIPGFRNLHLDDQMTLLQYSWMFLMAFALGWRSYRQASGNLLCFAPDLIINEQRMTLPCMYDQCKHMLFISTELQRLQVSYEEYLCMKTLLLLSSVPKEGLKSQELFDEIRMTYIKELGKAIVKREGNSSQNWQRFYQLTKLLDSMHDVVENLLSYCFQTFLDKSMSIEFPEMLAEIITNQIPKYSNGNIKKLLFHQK
Sequence of Vasoactive intestinal polypeptide receptor 1 (P32241 whole entry): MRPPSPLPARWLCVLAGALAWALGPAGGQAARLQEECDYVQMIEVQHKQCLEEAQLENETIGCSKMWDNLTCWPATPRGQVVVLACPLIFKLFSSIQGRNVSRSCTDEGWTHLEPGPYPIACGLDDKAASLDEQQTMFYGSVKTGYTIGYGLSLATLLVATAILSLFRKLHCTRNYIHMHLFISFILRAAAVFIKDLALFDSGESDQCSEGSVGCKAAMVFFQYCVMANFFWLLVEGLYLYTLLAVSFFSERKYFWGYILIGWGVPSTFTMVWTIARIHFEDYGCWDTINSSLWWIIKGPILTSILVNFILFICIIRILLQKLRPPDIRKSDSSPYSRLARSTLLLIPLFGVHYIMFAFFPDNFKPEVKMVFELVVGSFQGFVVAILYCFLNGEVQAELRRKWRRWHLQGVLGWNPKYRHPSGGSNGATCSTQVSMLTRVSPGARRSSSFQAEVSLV
Sequence of Phosphodiesterase 3a (C7DXW3 whole entry): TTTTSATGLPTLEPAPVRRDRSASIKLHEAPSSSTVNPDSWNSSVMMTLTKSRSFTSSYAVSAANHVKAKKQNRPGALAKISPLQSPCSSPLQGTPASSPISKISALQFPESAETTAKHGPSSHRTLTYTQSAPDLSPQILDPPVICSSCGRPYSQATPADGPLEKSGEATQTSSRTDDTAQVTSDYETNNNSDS

O/N=C/Nc1ccc(N2CCOCC2)c(Cl)c1 [N'-(3-Chloro-4-morpholinophenyl)-N-hydroxyformamidine]
> 10 µM: B2 bradykinin receptor | [1] | [2] | Adenosine receptor A1 | [3] | [4] | [5] | [6] | [7] | [8] | [9] | [10] | [11] | [12] | [13] | [14] | Mu-type opioid receptor | Phosphodiesterase 3a | Substance-P receptor | [15] | [16] | [17] | [18] | [19] | [20] | [21] | [22] | [23] | [24] | [25] | D(1A) dopamine receptor | [26] | Histamine H1 receptor | Adenosine receptor A2a | [27] | [28] | D(2) dopamine receptor | Caspase-3 | Glucocorticoid receptor
